We go through one compound from PubChem BioAssay AID602350 (Broad Institute, 2012).

The target in the experiment is Protein disulfide-isomerase (Homo sapiens) (UniProt P07237). The experiment in a line: inhibition of PDI-driven insulin aggregation – biochemical, turbidity, absorbance, cherry-picked samples, dose response (AID 602350).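 Further: potency is for inhibitors that reduce insulin aggregation absorbance.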 The settings on record: recombinant PDI insulin aggregation, absorbance 650 nm, 90 min.
Protein disulfide-isomerase (Homo sapiens), sequence (P07237 whole entry, looked up): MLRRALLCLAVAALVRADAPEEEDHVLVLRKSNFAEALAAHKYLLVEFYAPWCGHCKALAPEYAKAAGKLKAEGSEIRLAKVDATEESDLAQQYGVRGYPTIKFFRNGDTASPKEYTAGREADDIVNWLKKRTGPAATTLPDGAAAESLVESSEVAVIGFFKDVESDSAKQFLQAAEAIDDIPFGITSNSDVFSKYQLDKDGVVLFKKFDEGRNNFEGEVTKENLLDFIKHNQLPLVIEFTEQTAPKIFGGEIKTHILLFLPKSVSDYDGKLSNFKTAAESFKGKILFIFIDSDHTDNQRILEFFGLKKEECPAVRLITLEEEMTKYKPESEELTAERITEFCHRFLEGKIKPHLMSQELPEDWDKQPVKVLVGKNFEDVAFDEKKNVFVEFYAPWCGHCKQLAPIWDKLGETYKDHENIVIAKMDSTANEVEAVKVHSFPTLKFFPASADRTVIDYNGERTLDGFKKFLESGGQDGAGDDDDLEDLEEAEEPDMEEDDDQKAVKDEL

On to `Cc1noc(C)c1S(=O)(=O)Nc1ccc2c(c1)CC(=O)N([C@@H](C)CO)C[C@@H](C)[C@H](CN(C)S(=O)(=O)c1ccc(F)cc1)O2`, for which the AC50 is 19.5 µM.

The term AC50 denotes the concentration at which the activity in the assay is half-maximal.
